Consider one compound from BindingDB's records for doi:10.1016/j.bmcl.2010.03.025 (Wyeth Research, 2010).

The assay addresses 3-phosphoinositide-dependent protein kinase 1 (PDPK1) (Homo sapiens) (UniProt O15530). The experiment in a line: Inhibition of PDK1.

Usually IC50 stands for the concentration that gives 50% inhibition. Read a low IC50 as greater potency in that assay. Turning to `COc1cc(Nc2c(C#N)cnc3cc(/C=C/CCN4CCN(C)CC4)c(OC)cc23)c(Cl)cc1Cl` [(E)-4-(2,4-dichloro-5-methoxyphenylamino)-6-methoxy-7-(4-(4-methylpiperazin-1-yl)but-1-enyl)quinoline-3-carbonitrile], the concentration for half-maximal inhibition (IC50) was above 10 µM.
